Results taken from US4868162A, “Antiviral agent” (Teijin Limited, priority 1985, dated 1989).
≈ marks a conversion by molar mass, not a printed value.

Columns and labels:
[1] = test system: herpes simplex type I virus (KOS strain); assay: Plaque reduction in herpes simplex type I infected Vero cells (Example 3, 2,000 pfu/ml); assay type: cell-based; conditions: for Therapeutic index MTD/ED50: HSV-1 KOS 2,000 pfu/ml, 2880 min; for EC50: Human alphaherpesvirus 1, HSV-1 KOS 2,000 pfu/ml, 48-hour culture, read-out: ED50 (effective dose which suppressed the formation of plaques by 50% in number)
Experimental: (§1) Vero cells. were cultured in Eagle essential medium (MEM) containing 5% fetal calf serum (FCS) and were made to proliferate after the monolayer cell culture method. The cells were inoculated with 0.1 ml of herpes simplex type I virus (KOS strain) of 2,000 pfu/ml concentration, which were made to be adsorbed by the host cells at 37° C. for 1 hour. The virus that were not yet adsorbed were washed away with a 2% CS-MEM medium and then test compounds, inclusive of the compounds of this invention, were added to the cultures respectively in concentration of 0.01~1,000 μg/ml.
(§2) After 48-hour culture in 2% CS-MEM medium was over, the effective dose of each test compound which suppressed the formation of plaques by 50% in number (ED50) and the minimum toxic dose (MTD) which caused the cytotoxicity were measured.

in vitro [2] = assay type: cell-based, African green monkey; conditions: monkey, vero cells
Experimental: as §1, §2

in vitro [3] = assay type: cell-based, African green monkey; conditions: monkey, vero cells; remark: listed apart in the source
Experimental: as §2, with “Vero cells were cultured in Eagle minimum 1 medium (MEM) containing 5% calf serum (CS) and were made to proliferate after the monolayer cell culture method. […] After” for “After”, “(EDs)” for “(ED50)”

[4] = test system: herpes simplex type I virus (KOS strain); assay: Plaque reduction in herpes simplex type I infected Vero cells (Example 2, 10,000 pfu/ml); assay type: cell-based; conditions: HSV-1 KOS 10,000 pfu/ml; for EC50: Human alphaherpesvirus 1, 48-hour culture, read-out: ED50 (effective dose which suppressed the formation of plaques by 50% in number); for EC50 / Therapeutic index MTD/ED50: Vero cells; for Therapeutic index MTD/ED50: 2880 min
Experimental: Vero cells were cultured in Eagle minimum
1 medium (MEM) containing 5% calf serum (CS) and were made to proliferate after the monolayer cell culture method. The cultured cells were inoculated with 0.1 ml of herpes simplex type I virus (KOS strain) of 10,000 pfu/ml concentration, which were left to be adsorbed by the host cells at 37° C. for 1 hour. The test compounds, inclusive of the compounds of this invention, were added to the cultures respectively in concentration of 0.001~1,000 μg/ml.
After 48-hour culture in 2% CS-MEM medium was over, the effective dose of each test compound which suppressed the formation of plaques by 50% in number (EDs) and the minimum toxic dose (MTD) which caused the cytotoxicity were measured.

[5] = Cytotoxicity, minimum toxic dose in Vero cells (Example 1); assay type: cell-based, African green monkey; conditions: monkey
Experimental: (§3) Vero cells were cultured in Eagle minimum essential medium (MEM) containing 5% calf serum (CS) and were made to proliferate by means of monolayer cell culture. The cells were inoculated with 0.1 ml of herpes simplex type I virus (KOS strain) adjusted to 1,000 pfu/ml, which were allowed to hold on the host cells by adsorption for 1 hour at 37° C. Thereafter, the test compound, inclusive of the compounds of this invention, were added thereto respectively in concentration of 0.01~1,000 μg/ml.
(§4) After 48-hour culture in CS-MEM medium was over, the effective dose of each test compound which suppressed the formation of plaques by 50% in number (ED50) and the minimum toxic dose (MTD) which caused the cytotoxicity were measured.

[6] = test system: herpes simplex type I virus (KOS strain); assay: Plaque reduction in herpes simplex type I infected Vero cells (Example 1, 1,000 pfu/ml); assay type: cell-based; conditions: for Therapeutic index MTD/ED50: HSV-1 KOS 1,000 pfu/ml, 2880 min; for EC50: Human alphaherpesvirus 1, HSV-1 KOS 1,000 pfu/ml, 48-hour culture, read-out: ED50 (effective dose which suppressed the formation of plaques by 50% in number)
Experimental: as §3, §4

| SMILES | EC50 [1] [µg/mL] | MCC at 48 h (in vitro [2]) [µg/mL] | MCC at 48 h (in vitro [3]) [µg/mL] | EC50 [4] [µg/mL] | EC50 [6] [µg/mL] | Therapeutic index MTD/ED50 [1] | Therapeutic index MTD/ED50 [4] | MCC at 48 h ([5]; vero cells) [µg/mL] | Therapeutic index MTD/ED50 [6] | also measured |
| --- | --- | --- | --- | --- | --- | --- | --- | --- | --- | --- |
| O=C(OC[C@H]1O[C@@H](n2cc(F)c(=O)[nH]c2=O)C[C@@H]1OC(=O)c1ccccc1)c1ccccc1 [3',5'-dibenzoyl-5-fluoro-2'-deoxyuridine] | 0.112 (≈ 0.246 µM) | 100 |  |  |  | 893 |  |  |  |  |
| CCCCCCCCCCCC(=O)OC[C@H]1O[C@@H](n2cc(F)c(=O)[nH]c2=O)C[C@@H]1OC(=O)CCCCCCCCCCC [3',5'-didodecanoyl-5-fluoro-2'-deoxyuridine] |  |  |  |  | 0.054 (≈ 0.0884 µM) |  |  | 100 | 1,900 |  |
| CCCCCCCCCCCCCCCC(=O)OC[C@H]1O[C@@H](n2cc(F)c(=O)[nH]c2=O)C[C@@H]1OC(=O)CCCCCCCCCCCCCCC [3',5'-dihexadecanoyl-5-fluoro-2'-deoxyuridine] |  |  |  |  | 0.077 (≈ 0.106 µM) |  |  | 150 | 2,000 |  |
| CCCCCCCCCCCCCC(=O)OC[C@H]1O[C@@H](n2cc(F)c(=O)[nH]c2=O)C[C@@H]1OC(=O)CCCCCCCCCCCCC [3',5'-ditetradecanoyl-5-fluoro-2'-deoxyuridine] |  |  |  |  | 0.049 (≈ 0.0735 µM) |  |  | 100 | 2,000 |  |
| O=c1[nH]c(=O)n([C@H]2C[C@H](O)[C@@H](CO)O2)cc1F [5-fluoro-2'-deoxyuridine, reference compound] |  |  |  |  | 0.01 (≈ 0.0406 µM) |  |  |  | 10 | MCC at 48 h ([5]; Vero cells, Example 1, 48-hour culture, read-out: MTD (minimum toxic dose which caused the cytotoxicity)): 0.1 µg/mL |
| Nc1nc2c(ncn2COCCO)c(=O)[nH]1 [9-(2-hydroxyethoxymethyl)guanine, reference compound] | 3.36 (≈ 14.9 µM) | 1000 | 1000 | 7.26 (≈ 32.2 µM) | 0.991 (≈ 4.4 µM) | 279 | 140 | 1000 | 1,000 |  |

Continued, in another order:

| EC50 [1] [µg/mL] | MCC at 48 h (in vitro [2]) [µg/mL] | MCC at 48 h (in vitro [3]) [µg/mL] | EC50 [4] [µg/mL] | EC50 [6] [µg/mL] | SMILES | Therapeutic index MTD/ED50 [1] | Therapeutic index MTD/ED50 [4] | MCC at 48 h ([5]; vero cells) [µg/mL] | Therapeutic index MTD/ED50 [6] | also measured |
| --- | --- | --- | --- | --- | --- | --- | --- | --- | --- | --- |
|  |  | 100 | 0.038 (≈ 0.0685 µM) |  | CCCCCCCCCC(=O)OC[C@H]1O[C@@H](n2cc(F)c(=O)[nH]c2=O)C[C@@H]1OC(=O)CCCCCCCCC [3',5'-didecanoyl-5-fluoro-2'deoxyuridine, 3',5'-didecanoyl-5-fluoro-2'-deoxyuridine] |  | 2,600 |  |  |  |
|  |  | 100 | 0.018 (≈ 0.0361 µM) |  | CCCCCCCC(=O)OC[C@H]1O[C@@H](n2cc(F)c(=O)[nH]c2=O)C[C@@H]1OC(=O)CCCCCCC [3',5'-dioctanoyl-5-fluoro-2'-deoxyuridine] |  | 5,600 |  |  | effective dose relative to that of Acyclovir for the same effect ([4]; fraction of Acyclovir effective dose): about 1/400 |
| 0.285 (≈ 0.47 µM) | 10 |  |  |  | CCCCCCCC(=O)OC[C@H]1O[C@@H](n2cc(I)c(=O)[nH]c2=O)C[C@@H]1OC(=O)CCCCCCC [3',5'-dioctanoyl-5-iodo-2'-deoxyuridine] | 35 |  |  |  |  |
